Source: ChEMBL document CHEMBL1201862, “PubChem BioAssay data set” (2004)
“And” between values parts separate entries of the source, which are not always exact repeats. Equal entries are not always repeated.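 Grown in 96-well plates, cells were treated for 48 hours with each compound at five concentrations. Insufficient inhibition: endpoint recorded as highest concentration tested. GI50 is the concentration that inhibits growth by half.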 The source made the active and inactive calls. Cut-off read from the data, not from the text of the source: active = GI50 up to about 1.1 µM and inactive = higher.

Assays:
Assay in all cases: NCI anticancer screen, dose series, 48 h
HOP-62 = system: HOP-62
Hs-578T = system: Hs-578T
MOLT-4 = system: MOLT-4
SK-MEL-2 = system: SK-MEL-2
UACC-62 = system: UACC-62
SR = system: SR
SF-268 = system: SF-268
HOP-92 = system: HOP-92
HCT-15 = system: HCT-15
K562 = system: K562
NCI-H23 = system: NCI-H23
MDA-MB-435 = system: MDA-MB-435
ACHN = system: ACHN
UACC-257 = system: UACC-257
EKVX = system: EKVX
IGROV-1 = system: IGROV-1
OVCAR-4 = system: OVCAR-4
U-251 = system: U-251
NCI-H460 = system: NCI-H460
786-0 = system: 786-0

Row | SMILES | GI50 (HOP-62) | GI50 (Hs-578T) | GI50 (MOLT-4) | GI50 (SK-MEL-2) | GI50 (UACC-62) | GI50 (SR) | GI50 (SF-268) | GI50 (HOP-92) | GI50 (HCT-15) [µM] | GI50 (K562) | GI50 (NCI-H23) | GI50 (MDA-MB-435) | GI50 (ACHN) | GI50 (UACC-257) | GI50 (EKVX) | GI50 (IGROV-1) | GI50 (OVCAR-4) | GI50 (U-251) | GI50 (NCI-H460) | GI50 (786-0)
1 | Fc1ccc(NC(=S)SCc2ccc3c(c2)OCO3)cc1F | 39.5 µM (inactive) | 26.9 µM (inactive) | 18.7 µM (inactive) | 18.3 µM (inactive) | 14.2 µM (inactive) | 17.4 µM (inactive) | 21.2 µM (inactive) | 23.2 µM (inactive) | 17.2 | 19.1 µM (inactive) | 20.7 µM (inactive) | 20.6 µM (inactive) | 19.7 µM (inactive) | 21.1 µM (inactive) | 11.7 µM (inactive) | 18.6 µM (inactive) | 22.4 µM (inactive) | 17.4 µM (inactive) | 28 µM (inactive) | 37.2 µM (inactive)
2 | O=c1ccn(CC2(CO)CCC2)c(=O)[nH]1 | > 100 µM (inactive) | > 100 µM (inactive) | > 100 µM (inactive) | > 100 µM (inactive) | > 100 µM (inactive) | > 100 µM (inactive) | > 100 µM (inactive) | > 100 µM (inactive) | > 100 | > 100 µM (inactive) | > 100 µM (inactive) | > 100 µM (inactive) | > 100 µM (inactive) | > 100 µM (inactive) | > 100 µM (inactive) | > 100 µM (inactive) | > 100 µM (inactive) | > 100 µM (inactive) | > 100 µM (inactive) | > 100 µM (inactive)
3 | CC(C)=CCC[C@@H](C)C1=C(Nc2ccccc2F)C(=O)C(C)=C(O)C1=O | 9.98 µM (inactive) | 5.31 µM (inactive) | 5.46 µM (inactive) | 8.75 µM (inactive) | 4.81 µM (inactive) | 11 µM (inactive) | 5.47 µM (inactive) | 9.31 µM (inactive) | 3.77 | 4.45 µM (inactive) | 3.66 µM (inactive) | 6.22 µM (inactive) | 3.5 µM (inactive) | 10.1 µM (inactive) | 5.12 µM (inactive) | 4.54 µM (inactive) | 9.98 µM (inactive) | 8.49 µM (inactive) | 3.92 µM (inactive) | 5.65 µM (inactive)
4 | CCN(CC)CCCNc1c2c(Cl)cc(Cl)cc2nc2nc(O)nc(C)c12 | 23.2 µM (inactive) | 47.5 µM (inactive) | 20.7 µM (inactive) | 27.5 µM (inactive) | 68.2 µM (inactive) | > 10 µM (inactive) | 23 µM (inactive) | 57.3 µM (inactive) | > 100 | 44.1 µM (inactive) | 55.8 µM (inactive) | 21.3 µM (inactive) | > 100 µM (inactive) | 43 µM (inactive) | > 100 µM (inactive) | 35.6 µM (inactive) | 33.9 µM (inactive) | 17.3 µM (inactive) | 20.2 µM (inactive) | 18.7 µM (inactive)
5 | CN(C)C(c1ccccc1)C1COC2Cc3ccccc3C1O2 (stereo not given) | > 100 µM (inactive) | 92.3 µM (inactive) | > 100 µM (inactive) and 54 µM (inactive) | > 100 µM (inactive) | > 100 µM (inactive) | > 100 µM (inactive) | > 100 µM (inactive) | 58.1 µM (inactive) | > 100 | 66.2 µM (inactive) and 38.7 µM (inactive) | > 100 µM (inactive) | > 100 µM (inactive) | > 100 µM (inactive) | > 100 µM (inactive) | > 100 µM (inactive) | > 100 µM (inactive) | > 100 µM (inactive) | > 100 µM (inactive) | > 100 µM (inactive) | > 100 µM (inactive)
6 | CC(C)(CN1CCCCC1)C(=O)/C=C/c1c(Cl)cccc1Cl | 1.79 µM (inactive) | 2.17 µM (inactive) | 0.918 µM (active) | 1.49 µM (inactive) | 1.29 µM (inactive) | 0.42 µM (active) | 1.13 µM (inactive) | 1.05 µM (active) | 0.879 | 0.736 µM (active) | 1.35 µM (inactive) | 0.7 µM (active) | 1.49 µM (inactive) | 2 µM (inactive) | 0.834 µM (active) | 0.192 µM (active) | 1.73 µM (inactive) | 1.38 µM (inactive) | 1.61 µM (inactive) | 1.31 µM (inactive)
